Target: T1, HP1α-chromatin condensates (Homo sapiens, UniProt P45973)
T1 construct: 6x-His (cleaved yes); made in house; host or cells: E. coli Rosetta BL21 (DE3)
Test: HP1α-chromatin condensate in vitro droplet assay / screening (fluorescence imaging)
Assay type: biochemical
Settings: for Effect of bioactive small molecules on HP1α-chromatin condensates: FIG. 7, Bioactive compound library (Selleck Chemicals), final concentration of 10 μM, H3K9me3 nucleosome arrays
Procedure: HP1α was diluted to the desired 2× concentration. HP1αKCK was added to HP1α at a ratio of 1:500 HP1α: HP1αKCK for evident fluorescent signal. HP1α-chromatin droplets were formed at 40 nM nucleosome array concentration in 20 mM HEPES pH 7.5, 0.1 mM EDTA and 2× HP1α-HP1αKCK in 20 mM HEPES pH 7.2, 150 mM KCl 1 mM DTT. 10 μL of 80 nM nucleosome arrays (2×) was mixed with 10 μl 2× HP1α-HP1αKCK and incubated at room temperature for 20 minutes before transferring to a glass bottom 384 well plate for imaging.
384 well glass bottom plates (Greiner Sensoplate 781892) were prepared for sample examination as follows: The wells were rinsed three times with 100 μl water, incubated with 100 μl of 2% Hellmanex for 30 mins-1 hour, rinsed with water three times again, incubated with 100 μl of 0.5M NaOH for 30 mins, rinsed with water three times, and then 70 μl of 20 mg/ml mPEG-silane dissolved in 95% EtOH was added to coat the wells. The plate was covered with foil and left overnight at 4° C.
After the overnight, the wells were rinsed with 95% EtOH five times, followed by incubation with 100 mg/ml BSA for 2 hours. Then, the wells were rinsed three times with water and three times with 1× phasing buffer afterwards (20 mM HEPES pH 7.2, 75 mM KCl, 0.05 mM EDTA, 0.5 mM DTT). After, the condensates are added to each well.
To conduct droplet assays at scale, arrays assembled with 540 μg fluorescently labeled array DNA and 1.3 mg of fluorescently labeled HP1α were needed for one 384 well plate. 384 well plates were washed and coated in mPEG-silane in bulk using the Biotek EL406 washer dispenser. HP1α-array droplets were screened against a Bioactive compound library (Selleck Chemicals). These compounds were diluted in 1× phasing buffer (20 mM HEPES pH 7.2, 75 mM KCl, 0.05 mM EDTA, 0.5 mM DTT), and added to the wells for a final concentration of 10 μM in the reaction. The droplets and compounds were dispensed in the 384 wells using the Biomek-FX.
After 3-4 hours of settling to the bottom of the plate, the condensates were imaged on the IN Cell Analyzer 6500HS equipped with a Nikon Plan Apo 40×/0.95NA objective and sCMOS camera. Five field of views per channel were taken per well. Image analysis was conducted using a custom pipeline written in Python using NumPy and SciPy SciKit libraries. Classical image segmentation and quantification techniques were implemented to identify droplets and characterize their geometry, fluorescent intensity, and consequently the effectiveness of the small molecules on the droplets.

T1 sequence (P45973 whole entry): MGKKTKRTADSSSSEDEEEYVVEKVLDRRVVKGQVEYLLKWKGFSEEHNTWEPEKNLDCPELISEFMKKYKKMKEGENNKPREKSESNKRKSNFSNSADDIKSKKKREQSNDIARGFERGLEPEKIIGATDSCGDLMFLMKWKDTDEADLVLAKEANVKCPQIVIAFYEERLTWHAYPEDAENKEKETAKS

Row | Compound | Effect of bioactive small molecules on HP1α-chromatin condensates | Effect of biologically relevant interaction partners on HP1α-chromatin condensate formation (FIG. 6, interaction partner added to HP1α-chromatin condensates)
1 | CN(C)CCN1C(=O)c2cccc3cc(N)cc(c23)C1=O [Amonifide] | dissolve condensates | –
2 | C#Cc1cccc(Nc2ncnc3cc(OCCOC)c(OCCOC)cc23)c1 [Erlotinib] | enhance condensate formation | –
3 | CS(=O)(=O)CCNCc1ccc(-c2ccc3ncnc(Nc4ccc(OCc5cccc(F)c5)c(Cl)c4)c3c2)o1 [Lapatinib ditosylate] | mild or no effect | –
4 | CS(=O)(=O)c1ccc(C(=O)Nc2ccc(Cl)c(-c3ccccn3)c2)c(Cl)c1 [Vismodegib] | enhance condensate formation | –
5 | CC(c1cc2ccccc2s1)N(O)C(N)=O (stereo not drawn) [Zileuton] | dissolve condensates | –
6 | HP1β: heterochromatin protein, biologically relevant interaction partner of HP1α-chromatin condensates | – | dissolves condensates, making them disappear or smaller
